Measured values: US20250281464A1, “TREATMENT OF PATHOGENIC NEISSERIA SP. INFECTION WITH TRIAZOLE ANTIFUNGAL AGENTS” (Virginia Tech Intellectual Properties, Inc., priority 2022, published 2025)
Converted amounts (≈) assume the structure as drawn. Like-named read-outs stand apart in the source and are kept apart here.

Columns and labels:
[1] = test system: L. johnsonii; assay: MIC against commensal vaginal Lactobacillus strains; type: cell-based, Lactobacillus johnsonii
Description: (§1) N. gonorrhoeae pathogenesis greatly depends on colonization of the reproductive tract. One of the natural barriers of such colonization is an intact healthy microbiome. Species of lactobacilli present in the genitourinary tract play a significant role in hindering colonization by Neisseria(1).
(§2) A healthy vaginal microbiome that is dominated by Lactobacillus spp. is less susceptible to N. gonorrhoeae infection and other sexually transmitted diseases (STDs). […] We tested the activity of azoles against important members of healthy vaginal microbiota that inhibit N. gonorrhoeae colonization.

[2] = test system: L. crispatus; assay: as above; type: cell-based, Lactobacillus crispatus; settings: for MIC: Lactobacillus crispatus
Description: as §1, §2

[3] = test system: N. gonorrhoeae; assay: Drug library screen against N. gonorrhoeae; type: cell-based, Neisseria gonorrhoeae; settings: Johns Hopkins Clinical Compounds Library, MCE FDA-Approved Drug Library, Pharmakon library; killing in clinical range
Description: To identify drugs capable of killing Neisseria gonorrhoeae, the Johns Hopkins Clinical Compounds Library (1514), the MCE FDA-Approved Drug Library (2441), and the Pharmakon library (1600) were screened against N. gonorrhoeae. Positive hits that are capable of killing Neisseria gonorrhoeae in clinical range were identified (itraconazole, ravuconazole and isavuconazole).

[4] = test system: N. flavescens; assay: MIC against Neisseria spp.; type: cell-based; settings: N. flavescens (1 strain)
Description: (§3) Intrigued by the specificity and potent activity of azoles against N. gonorrhoeae, we evaluated the extent of the azoles' antibacterial activity against other Neisseria species (Table 8).

[5] = test system: N. mucosa; assay: MIC against Neisseria spp.; type: cell-based; settings: N. mucosa (1 strain)
Description: as §3

[6] = test system: N. lactamica; assay: MIC against Neisseria spp.; type: cell-based; settings: N. lactamica (1 strain)
Description: as §3

[7] = test system: N. gonorrhoeae isolates; assay: MIC against panel of N. gonorrhoeae clinical isolates; type: cell-based, Neisseria gonorrhoeae; settings: for MIC50 / MIC90: Neisseria gonorrhoeae; for MIC50: read-out: MIC50; for MIC90: read-out: MIC90
[8] = test system: N. meingitidis; assay: MIC against Neisseria spp.; type: cell-based, Neisseria meningitidis; settings: N. meingitidis (5 strains)
[9] = test system: N. gonorrhoeae; assay: Female mouse model of N. gonorrhoeae genital tract infection; type: in vivo; settings: N. gonorrhoeae FA1090, low dose 100 mg/kg orally
Procedure: FIG. 1—Efficacy of Ravuconazole one oral dose in a mouse model against N. gonorrhoeae FA1090. N. gonorrhoeae burden (average±standard deviation log 10 CFU/mL) after treatment with a single dose of ravuconazole (40 mg/kg) (fosravuconazole/E-1224 Prodrug) via oral gavage. As a negative control, mice (n=8) were administered the vehicle (water), As a positive control, a group of mice received a single intraperitoneal dose of ceftriaxone (15 mg/kg in water). Vaginal swabs were collected daily and cultured to determine the number of viable bacteria. The limit of detection was 10 CFU/mL. The data were analyzed via a two-way ANOVA followed by Dunnett's test for multiple comparisons. Asterisks indicate a statistical significant difference between mice treated with either ravuconazole or ceftriaxone as compared to the vehicle-treated mice.
FIG. 2A-2C—Efficacy of Ravuconazole one oral dose in a mouse model against drug-resistant strains. […] N. gonorrhoeae burden (average±standard deviation log 10 CFU/mL) after treatment with a single dose of ravuconazole (160 mg/kg) (fosravuconazole/E-1224 Prodrug) via oral gavage. […] The data were analyzed via a two-way ANOVA followed by Dunnett's test for multiple comparisons. […]
FIG. 3—Efficacy of 3 doses of isavuconazole against the vaginal burden of N. gonorrhoeae. […] The data were analyzed via a two-way ANOVA followed by Dunnett's test for multiple comparisons. […]

[10] = test system: Staphylococcus aureus; assay: MIC against normal gut microbiota; type: cell-based; settings: Staphylococcus aureus (1 strain)
Description: (§4) Disrupting the intestinal microbiota using broad-spectrum antimicrobial therapy increases the susceptibility of hosts to C. difficile colonization.

[11] = test system: Lactobacillus rhamnosus; assay: MIC against normal gut microbiota; type: cell-based; settings: Lactobacillus rhamnosus (1 strain)
Description: as §4

[12] = test system: Bacteroides fragilis; assay: MIC against normal gut microbiota; type: cell-based; settings: Bacteroides fragilis (4 strains)
Description: as §4

[13] = test system: Escherichia coli; assay: MIC against normal gut microbiota; type: cell-based; settings: Escherichia coli (1 strain)
Description: as §4

[14] = test system: Enterococcus faecalis; assay: MIC against normal gut microbiota; type: cell-based; settings: Enterococcus faecalis (1 strain)
Description: as §4

[15] = test system: Bifidobacterium angulatum; assay: MIC against normal gut microbiota; type: cell-based; settings: Bifidobacterium angulatum (1 strain)
Description: as §4

[16] = test system: Enterococcus faecium; assay: MIC against normal gut microbiota; type: cell-based; settings: Enterococcus faecium (1 strain)
Description: as §4

[17] = test system: Bacteroides dorei; assay: MIC against normal gut microbiota; type: cell-based; settings: Bacteroides dorei (2 strains)
Description: as §4

[18] = test system: Lactobacillus brevis; assay: MIC against normal gut microbiota; type: cell-based; settings: Lactobacillus brevis (1 strain)
Description: as §4

[19] = test system: Lactobacillus casei; assay: MIC against normal gut microbiota; type: cell-based; settings: Lactobacillus casei (1 strain)
Description: as §4

[20] = Table 1, 104 N. gonorrhoeae isolates
[21] = Table 3, 103 N. gonorrhoeae isolates with different resistance profiles

SMILES: C[C@@H](c1nc(-c2ccc(C#N)cc2)cs1)[C@](O)(Cn1cncn1)c1cc(F)ccc1F [Isavuconazole]
- MIC ([1]; Lactobacillus johnsonii, L. johnsonii HM-643): > 256 µg/mL
- MIC Range ([1]; Table 6, L. johsonii (2 strains)): ≥256 µg/mL
- MIC ([2]; L. crispatus HM-103): > 256 µg/mL
- MIC ([2]; L. crispatus HM-371): > 256 µg/mL
- MIC ([2]; L. crispatus HM-638): > 256 µg/mL
- MIC Range ([2]; Table 6, L. crispatus (3 strains)): ≥256 µg/mL
- screening outcome [3]: Positive hits
- MIC Range [4]: 16 µg/mL (≈ 36.6 µM)
- MIC Range [5]: 8 µg/mL (≈ 18.3 µM)
- MIC Range [6]: 1 µg/mL (≈ 2.29 µM)
- MIC50 [7, 20]: 0.5 µg/mL (≈ 1.14 µM)
- MIC90 [7, 20]: 1 µg/mL (≈ 2.29 µM)
- MIC50 [7, 21]: 0.5 µg/mL (≈ 1.14 µM)
- MIC90 [7, 21]: 1 µg/mL (≈ 2.29 µM)
- MIC Range [7, 20]: 0.015 to 2 µg/mL
- MIC Range [7, 21]: 0.015 to 4 µg/mL
- MIC Range [8]: 0.25 to 0.5 µg/mL
- infected mice in which the infection was cleared ([9]; second day): 50%
- infected mice in which the infection was cleared ([9]; third day of treatment): 100%
- MIC Range [10]: >256 µg/mL
- MIC Range [11]: >256 µg/mL
- MIC Range [12]: >256 µg/mL
- MIC Range [13]: >256 µg/mL
- MIC Range [14]: >256 µg/mL
- MIC Range [15]: >256 µg/mL
- MIC Range [16]: >256 µg/mL
- MIC Range [17]: >256 µg/mL
- MIC Range [18]: >256 µg/mL
- MIC Range [19]: >256 µg/mL
